For this experiment, the system named is RBL-2H3 cells. Nature of the experiment: IgE-induced Beta-hexosaminidase secretion in RBL-2H3 cells. Format: cell-based. The settings on record: Rattus norvegicus; RBL-2H3 cells sensitized with SPE-7, stimulated with DNP-BSA. The method, then: For the determination of IgE-induced Beta-hexosaminidase secretion, RBL-2H3 cells (SIBS) are seeded in 96 well plates at 4×10^4 cells per well and incubated in MEM media with 15% FBS and Glutamine ([…]) for 4 hours and sensitized with 0.5 ug/ml of SPE-7 overnight. Cells are washed 3 times with Tyrode's buffer and incubated in the presence or absence of various concentrations of the testing compound for 20 min at 37° C., 5% CO2. Cells are stimulated by adding 10 μL of DNP-BSA solution (150 ng/mL) to each well and incubating for 45 minutes at 37° C., 5% CO2. Then, 45 μL of the supernatant is taken and incubated with 100 μL of 1 mM 4-Nitrophenyl N-acetyl-β-D-glucosaminide (Sigma, Cat. No. N9376), which is diluted in 0.05 M citrate buffer (pH 4.5), for 1.5 hr at 37° C. The reactions are quenched by adding 185 μL of 0.05 M sodium carbonate buffer (pH 10.0). Plates are read at 405 nm on Multiskan (MK 3).

What is called IC50 is the concentration needed to halve the response being measured.

As to `O=C(C(F)F)N1CCO[C@H](COc2nc(-c3ccc(N4CCNCC4)cc3)cc3nccnc23)C1` [Compound 6, (S)-2,2-difluoro-1-(2-((7-(4-(piperazin-1-yl)phenyl)pyrido[4,3-b]pyrazin-5-yloxy)methyl)morpholino)ethanone], the IC50 lay within 100 to 1000 nM.
On to `CS(=O)(=O)N1CCO[C@H](COc2nc(-c3ccc(N4CCOCC4)c(F)c3)cc3nccnc23)C1` [Compound 7], for which the IC50 is 100 to 1000 nM.
For the molecule `CN1CCC(c2ccc(-c3cc4nccnc4c(OC[C@@H]4CN(S(C)(=O)=O)CCO4)n3)cc2)CC1` [Compound 8], the IC50 was 100 to 1000 nM.
Take `CS(=O)(=O)N1CCO[C@H](COc2nc(-c3ccc(C4CCOCC4)cc3)cc3nccnc23)C1` [Compound 11]: the IC50 lay within 1 to 100 nM.
Take `CS(=O)(=O)N1CCO[C@H](COc2nc(-c3ccc(N4CCOCC4)cc3)cc3nccnc23)C1` [Compound 12]: the IC50 lay within 1 to 100 nM.
`CN1CCN(c2ccc(-c3cc4nccnc4c(OC[C@@H]4CN(S(C)(=O)=O)CCO4)n3)cc2)CC1` [Compound 13]: the IC50 lay within 1 to 100 nM.
With `CS(=O)(=O)N1CCO[C@H](COc2nc(-c3ccc(N4CCNCC4)cc3)cc3nccnc23)C1` [Compound 14], the IC50 was in the range of 100 to 1000 nM.
The same measure for `CN1CCN(c2ccc(-c3cc4nccnc4c(OC[C@@H]4CN(C(=O)C(F)F)CCO4)n3)cc2)CC1` [Compound 16]: 1 to 100 nM.
The same measure for `CCN1CCN(c2ccc(-c3cc4nccnc4c(OC[C@@H]4CN(C(=O)C(F)F)CCO4)n3)cc2)CC1` [Compound 17]: 1 to 100 nM; for `CC1CN(c2ccc(-c3cc4nccnc4c(OC[C@@H]4CN(S(C)(=O)=O)CCO4)n3)cc2)CCO1` (stereo partly shown) [Compound 18]: 1 to 100 nM.
As to `C[C@@H]1CN(c2ccc(-c3cc4nccnc4c(OC[C@@H]4CN(S(C)(=O)=O)CCO4)n3)cc2)C[C@H](C)O1` [Compound 19], the IC50 lay in the range of 100 to 1000 nM.
In the case of `CS(=O)(=O)N1CCO[C@H](COc2nc(-c3ccc(N4CCC(F)(F)CC4)cc3)cc3nccnc23)C1` [Compound 20], the IC50 was in the range of 1 to 100 nM.
On to `CS(=O)(=O)N1CCO[C@H](COc2nc(-c3ccc(N4CCCCC4)cc3)cc3nccnc23)C1` [Compound 21], for which the IC50 lay in the range of 1 to 100 nM.
As for `CC(C)(O)C1CCN(c2ccc(-c3cc4nccnc4c(OC[C@@H]4CN(S(C)(=O)=O)CCO4)n3)cc2)CC1` [Compound 22], the figure is 1 to 100 nM; as for `CCS(=O)(=O)N1CCC(c2ccc(-c3cc4nccnc4c(OC[C@@H]4CN(C(C)=O)CCO4)n3)cc2)CC1` [Compound 23], 100 to 1000 nM; as for `CC(=O)N1CCO[C@H](COc2nc(-c3ccc(N4CCOCC4)cc3)cc3nccnc23)C1` [Compound 24], 100 to 1000 nM.
As for `CCS(=O)(=O)N1CCN(c2ccc(-c3cc4nccnc4c(OC[C@@H]4CN(C(C)=O)CCO4)n3)cc2)CC1` [Compound 25], the figure is 100 to 1000 nM.
The same measure for `CS(=O)(=O)N1CCO[C@H](COc2nc(-c3ccc(N4CCN(CCO)CC4)cc3)cc3nccnc23)C1` [Compound 27]: 100 to 1000 nM; for `NS(=O)(=O)N1CCO[C@H](COc2nc(-c3ccc(N4CCCCC4)cc3)cc3nccnc23)C1` [Compound 28]: 100 to 1000 nM.
On to `NS(=O)(=O)N1CCO[C@H](COc2nc(-c3ccc(N4CCC(F)(F)CC4)cc3)cc3nccnc23)C1` [Compound 29], for which the IC50 fell in the range of 100 to 1000 nM.
With `NS(=O)(=O)N1CCO[C@H](COc2nc(-c3ccc(N4CCCC4)cc3)cc3nccnc23)C1` [Compound 30], the IC50 was in the range of 100 to 1000 nM.
As for `COC1CCN(c2ccc(-c3cc4nccnc4c(OC[C@@H]4CN(S(C)(=O)=O)CCO4)n3)cc2)CC1` [Compound 31], the figure is 1 to 100 nM; as for `CNc1ccc(-c2cc3nccnc3c(OC[C@@H]3CN(S(C)(=O)=O)CCO3)n2)cc1` [Compound 36], 1 to 100 nM.
For the molecule `COc1ccc(-c2cc3nccnc3c(OC[C@@H]3CN(S(C)(=O)=O)CCO3)n2)cc1` [Compound 38], the IC50 lay within 100 to 1000 nM.
In the case of `Cn1ccc2cc(-c3cc4nccnc4c(OC[C@@H]4CN(S(C)(=O)=O)CCO4)n3)ccc21` [Compound 39], the IC50 lay in the range of 1 to 100 nM.
`COC1CCN(c2ccc(-c3cc4nccnc4c(OC[C@@H]4CN(C(C)=O)CCO4)n3)cc2)CC1` [Compound 48]: the IC50 fell in the range of 100 to 1000 nM.
In the case of `CC(=O)N1CCO[C@H](COc2nc(-c3ccc(N4CCN(CCO)CC4)cc3)cc3nccnc23)C1` [Compound 49], the IC50 lay in the range of 100 to 1000 nM.
`CNc1ccc(-c2cc3nccnc3c(OC[C@@H]3CN(C(=O)[C@H]4CCOC4)CCO3)n2)cc1` [Compound 50]: the IC50 fell in the range of 100 to 1000 nM.
On to `CNc1ccc(-c2cc3nccnc3c(OC[C@@H]3CN(C(=O)[C@H]4CCCO4)CCO3)n2)cc1` [Compound 51], for which the IC50 was in the range of 100 to 1000 nM.
As for `CNc1ccc(-c2cc3nccnc3c(OC[C@@H]3CN(S(C)(=O)=O)CCO3)n2)cc1F` [Compound 52], the IC50 was 1 to 100 nM.
As for `CC(=O)N1CCC(c2ccc(-c3cc4nccnc4c(OC[C@@H]4CN(C(C)=O)CCO4)n3)cc2)CC1` [Compound 54], the figure is 100 to 1000 nM.
The same measure for `CNS(=O)(=O)N1CCO[C@H](COc2nc(-c3ccc(N4CCOCC4)cc3)cc3nccnc23)C1` [Compound 55]: 100 to 1000 nM; for `CS(=O)(=O)N1CCO[C@H](COc2nc(-c3ccc(C4CCN(CCO)CC4)cc3)cc3nccnc23)C1` [Compound 58, (S)-2-(4-(4-(5-((4-(methylsulfonyl)morpholin-2-yl)methoxy)pyrido[3,4-b]pyrazin-7-yl)phenyl)piperidin-1-yl)ethanol]: 100 to 1000 nM.
For `COCCN1CCC(c2ccc(-c3cc4nccnc4c(OC[C@@H]4CN(S(C)(=O)=O)CCO4)n3)cc2)CC1` [Compound 59], the IC50 lay in the range of 100 to 1000 nM.
As to `O=C(C(F)F)N1CCO[C@H](COc2nc(-c3ccc(N4CCOCC4)cc3)cc3nccnc23)C1` [Compound 61], the IC50 lay within 1 to 100 nM.
With `NS(=O)(=O)N1CCO[C@H](COc2nc(-c3ccc(N4CCOCC4)cc3)cc3nccnc23)C1` [Compound 62], the IC50 is 1 to 100 nM.
As to `NC(=O)N1CCO[C@H](COc2nc(-c3ccc(N4CCOCC4)cc3)cc3nccnc23)C1` [Compound 63], the IC50 was 100 to 1000 nM.
In the case of `CN1CCN(c2ccc(-c3cc4nccnc4c(OC[C@@H]4CN(S(N)(=O)=O)CCO4)n3)cc2)CC1` [Compound 64], the IC50 was 100 to 1000 nM.
`CN(C)CCS(=O)(=O)N1CCO[C@H](COc2nc(-c3ccc(N4CCOCC4)cc3)cc3nccnc23)C1` [Compound 65]: the IC50 is 100 to 1000 nM.
As to `COCCS(=O)(=O)N1CCO[C@H](COc2nc(-c3ccc(N4CCOCC4)cc3)cc3nccnc23)C1` [Compound 66], the IC50 was 100 to 1000 nM.
`CC(C)C(=O)N1CCO[C@H](COc2nc(-c3ccc(N(C)C)cc3)cc3nccnc23)C1` [Compound 68]: the IC50 lay in the range of 100 to 1000 nM.
With `CN(C)c1ccc(-c2cc3nccnc3c(OC[C@@H]3CN(C(=O)C4CC(F)(F)C4)CCO3)n2)cc1` [Compound 71], the IC50 was in the range of 100 to 1000 nM.
Consider `CN(C)c1ccc(-c2cc3nccnc3c(OC[C@@H]3CN(C(=O)[C@@H]4CCOC4)CCO3)n2)cc1` [Compound 72], for which the IC50 was in the range of 100 to 1000 nM.
On to `CN(C)c1ccc(-c2cc3nccnc3c(OC[C@@H]3CN(C(=O)C4CCOCC4)CCO3)n2)cc1` [Compound 73], for which the IC50 lay within 100 to 1000 nM.
Consider `CN(C)c1ccc(-c2cc3nccnc3c(OC[C@@H]3CN(C(=O)[C@H]4CC[C@H](O)CC4)CCO3)n2)cc1` [Compound 74], for which the IC50 was in the range of 100 to 1000 nM.
The same measure for `CN(C)c1ccc(-c2cc3nccnc3c(OC[C@@H]3CN(C(=O)CC#N)CCO3)n2)cc1` [Compound 76]: 1 to 100 nM; for `CN(C)c1ccc(-c2cc3nccnc3c(OC[C@@H]3CN(C(=O)CCC#N)CCO3)n2)cc1` [Compound 77]: 100 to 1000 nM.
Consider `CN(C)c1ccc(-c2cc3nccnc3c(OC[C@@H]3CN(C(=O)c4cccnc4)CCO3)n2)cc1` [Compound 78], for which the IC50 fell in the range of 1 to 100 nM.
As to `O=S(=O)(C1CC1)N1CCO[C@H](COc2nc(-c3ccc(N4CCOCC4)cc3)cc3nccnc23)C1` [Compound 83], the IC50 lay within 1 to 100 nM.
Regarding `CN(C)c1ccc(-c2cc3nccnc3c(OC[C@@H]3CN(C(=O)Cc4c[nH]cn4)CCO3)n2)cc1` [Compound 84], the IC50 lay in the range of 100 to 1000 nM.
With `CN(C)c1ccc(-c2cc3nccnc3c(OC[C@@H]3CN(C(=O)c4ncc[nH]4)CCO3)n2)cc1` [Compound 86], the IC50 lay within 100 to 1000 nM.
The same measure for `CN(C)c1ccc(-c2cc3nccnc3c(OC[C@@H]3CN(C(=O)c4cnn(C)c4)CCO3)n2)cc1` [Compound 87]: 100 to 1000 nM; for `CCS(=O)(=O)N1CCO[C@H](COc2nc(-c3ccc(N(C)C)cc3)cc3nccnc23)C1` [Compound 88]: 1 to 100 nM; for `CN(C)c1ccc(-c2cc3nccnc3c(OC[C@@H]3CN(S(=O)(=O)c4cccnc4)CCO3)n2)cc1` [Compound 92]: 1 to 100 nM.
As for `CN(C)c1ccc(-c2cc3nccnc3c(OC[C@@H]3CN(C(=O)C4CCCC4)CCO3)n2)cc1` [Compound 98], the IC50 was in the range of 100 to 1000 nM.
As to `CNC(=O)CS(=O)(=O)N1CCO[C@H](COc2nc(-c3ccc(N(C)C)cc3)cc3nccnc23)C1` [Compound 99], the IC50 lay within 100 to 1000 nM.
`Cc1nccn1CCS(=O)(=O)N1CCO[C@H](COc2nc(-c3ccc(N(C)C)cc3)cc3nccnc23)C1` [Compound 101, (S)—N,N-dimethyl-4-(5-((4-(2-(2-methyl-1H-imidazol-1-yl)ethylsulfonyl)morpholin-2-yl)methoxy)pyrido[4,3-b]pyrazin-7-yl)aniline]: the IC50 was in the range of 100 to 1000 nM.
Turning to `CN(C)c1ccc(-c2cc3nccnc3c(OC[C@@H]3CN(S(=O)(=O)CCN4CC[C@@H](O)C4)CCO3)n2)cc1` [Compound 102], the IC50 fell in the range of 100 to 1000 nM.

The values are drawn from patent publication US20150307491A1, “SUBSTITUTED PYRIDOPYRAZINES AS SYK INHIBITORS” (HUTCHISON MEDIPHARMA LIMITED, priority 2012, published 2015).
